Values after ≈ are worked out from the molar mass of the structure shown.
Key:
Type in all cases: functional
Nakaseomyces glabratus = test: Antifungal activity against Candida glabrata assessed as inhibition of fungal growth by CLSI M27-A3 guidelines based method
Candida parapsilosis = test: Antifungal activity against Candida parapsilosis GIM 2.190 assessed as inhibition of fungal growth by CLSI M27-A3 guidelines based method; settings: Lodderomyces parapsilosis
Pichia kudriavzevii = test: Antifungal activity against Candida krusei GIM 2.1 assessed as inhibition of fungal growth by CLSI M27-A3 guidelines based method
Candida albicans [1] = test: Antifungal activity against Candida albicans GIM 2.194 assessed as inhibition of fungal growth by CLSI M27-A3 guidelines based method
Candida tropicalis = test: Antifungal activity against Candida tropicalis GIM 2.183 assessed as inhibition of fungal growth by CLSI M27-A3 guidelines based method
Candida albicans [2] = test: Antifungal activity against Candida albicans SC5314 assessed as inhibition of fungal growth by CLSI M27-A3 guidelines based method
Cryptococcus neoformans = test: Antifungal activity against Cryptococcus neoformans CGMCC 2.3161 assessed as inhibition of fungal growth by CLSI M27-A3 guidelines based method

MIC80 (Nakaseomyces glabratus) | MIC80 (Candida parapsilosis) | MIC80 (Pichia kudriavzevii) | MIC80 (Candida albicans [1]) | MIC80 (Candida tropicalis) | MIC80 (Candida albicans [2]) | MIC80 (Cryptococcus neoformans) | Compound
0.4 µg/mL (≈ 0.607 µM) | 0.025 µg/mL (≈ 0.038 µM) | 0.2 µg/mL (≈ 0.304 µM) | 0.025 µg/mL (≈ 0.038 µM) | 0.013 µg/mL (≈ 0.0197 µM) | 0.25 µg/mL (≈ 0.38 µM) | – | CN(Cc1ccc(N2CCN(Cc3cccc(I)c3)CC2)cc1)CC(O)(Cn1cncn1)c1ccc(F)cc1F (stereo not given)
0.1 µg/mL (≈ 0.145 µM) | 0.006 µg/mL (≈ 0.00869 µM) | 0.1 µg/mL (≈ 0.145 µM) | 0.006 µg/mL (≈ 0.00869 µM) | 0.006 µg/mL (≈ 0.00869 µM) | 0.013 µg/mL (≈ 0.0188 µM) | – | CN(Cc1ccc(N2CCN(Cc3c(Br)cccc3Br)CC2)cc1)CC(O)(Cn1cncn1)c1ccc(F)cc1F (stereo not given)
16 µg/mL (≈ 33 µM) | 0.1 µg/mL (≈ 0.206 µM) | 16 µg/mL (≈ 33 µM) | 0.1 µg/mL (≈ 0.206 µM) | 0.5 µg/mL (≈ 1.03 µM) | 0.5 µg/mL (≈ 1.03 µM) | 8 µg/mL (≈ 16.5 µM) | CC(=O)N1CCN(c2ccc(CN(C)CC(O)(Cn3cncn3)c3ccc(F)cc3F)cc2)CC1 (stereo not given)
0.2 µg/mL (≈ 0.31 µM) | 0.006 µg/mL (≈ 0.00929 µM) | 0.1 µg/mL (≈ 0.155 µM) | 0.025 µg/mL (≈ 0.0387 µM) | 0.006 µg/mL (≈ 0.00929 µM) | 0.013 µg/mL (≈ 0.0201 µM) | – | CN(Cc1ccc(N2CCN(Cc3c(Cl)cccc3Br)CC2)cc1)CC(O)(Cn1cncn1)c1ccc(F)cc1F (stereo not given)
0.2 µg/mL (≈ 0.318 µM) | 0.013 µg/mL (≈ 0.0207 µM) | 0.1 µg/mL (≈ 0.159 µM) | 0.1 µg/mL (≈ 0.159 µM) | 0.013 µg/mL (≈ 0.0207 µM) | 0.013 µg/mL (≈ 0.0207 µM) | 0.1 µg/mL (≈ 0.159 µM) | CN(Cc1ccc(N2CCN(Cc3c(F)cccc3Br)CC2)cc1)CC(O)(Cn1cncn1)c1ccc(F)cc1F (stereo not given)
0.4 µg/mL (≈ 0.657 µM) | 0.025 µg/mL (≈ 0.0411 µM) | 0.2 µg/mL (≈ 0.329 µM) | 0.025 µg/mL (≈ 0.0411 µM) | 0.013 µg/mL (≈ 0.0214 µM) | 0.025 µg/mL (≈ 0.0411 µM) | 0.3 µg/mL (≈ 0.493 µM) | CN(Cc1ccc(N2CCN(Cc3ccc(-c4ccccc4)cc3)CC2)cc1)CC(O)(Cn1cncn1)c1ccc(F)cc1F (stereo not given)
32 µg/mL (≈ 62.7 µM) | 0.5 µg/mL (≈ 0.979 µM) | 32 µg/mL (≈ 62.7 µM) | 1 µg/mL (≈ 1.96 µM) | 1 µg/mL (≈ 1.96 µM) | 0.25 µg/mL (≈ 0.49 µM) | 16 µg/mL (≈ 31.3 µM) | CN(Cc1ccc(N2CCN(C(=O)C3CC3)CC2)cc1)CC(O)(Cn1cncn1)c1ccc(F)cc1F (stereo not given)
> 32 µg/mL | 4 µg/mL (≈ 8.25 µM) | > 32 µg/mL | 8 µg/mL (≈ 16.5 µM) | 2 µg/mL (≈ 4.13 µM) | 4 µg/mL (≈ 8.25 µM) | > 32 µg/mL | CC(C)N1CCN(c2ccc(CN(C)CC(O)(Cn3cncn3)c3ccc(F)cc3F)cc2)CC1 (stereo not given)
3.2 µg/mL (≈ 5.84 µM) | 3.2 µg/mL (≈ 5.84 µM) | 3.2 µg/mL (≈ 5.84 µM) | 3.2 µg/mL (≈ 5.84 µM) | 1.6 µg/mL (≈ 2.92 µM) | 1.6 µg/mL (≈ 2.92 µM) | 3.2 µg/mL (≈ 5.84 µM) | CN(Cc1ccc(N2CCN(Cc3ccc(N)cc3)CC2)cc1)CC(O)(Cn1cncn1)c1ccc(F)cc1F (stereo not given)
0.2 µg/mL (≈ 0.353 µM) | 0.006 µg/mL (≈ 0.0106 µM) | 0.1 µg/mL (≈ 0.176 µM) | 0.013 µg/mL (≈ 0.0229 µM) | 0.013 µg/mL (≈ 0.0229 µM) | 0.025 µg/mL (≈ 0.0441 µM) | 0.1 µg/mL (≈ 0.176 µM) | CN(Cc1ccc(N2CCN(Cc3cccc(Cl)c3)CC2)cc1)CC(O)(Cn1cncn1)c1ccc(F)cc1F (stereo not given)
1.6 µg/mL (≈ 2.91 µM) | 0.025 µg/mL (≈ 0.0454 µM) | 0.4 µg/mL (≈ 0.726 µM) | 0.025 µg/mL (≈ 0.0454 µM) | 0.025 µg/mL (≈ 0.0454 µM) | 0.05 µg/mL (≈ 0.0908 µM) | 0.4 µg/mL (≈ 0.726 µM) | CN(Cc1ccc(N2CCN(Cc3cccc(F)c3)CC2)cc1)CC(O)(Cn1cncn1)c1ccc(F)cc1F (stereo not given)
1.6 µg/mL (≈ 2.87 µM) | 0.1 µg/mL (≈ 0.179 µM) | 1.6 µg/mL (≈ 2.87 µM) | 0.05 µg/mL (≈ 0.0897 µM) | 0.05 µg/mL (≈ 0.0897 µM) | 0.05 µg/mL (≈ 0.0897 µM) | 0.2 µg/mL (≈ 0.359 µM) | CN(Cc1ccc(N2CCN(Cc3ccc(C#N)cc3)CC2)cc1)CC(O)(Cn1cncn1)c1ccc(F)cc1F (stereo not given)
16 µg/mL (≈ 32.1 µM) | 0.1 µg/mL (≈ 0.201 µM) | 16 µg/mL (≈ 32.1 µM) | 0.5 µg/mL (≈ 1 µM) | 0.5 µg/mL (≈ 1 µM) | 0.25 µg/mL (≈ 0.501 µM) | 8 µg/mL (≈ 16 µM) | CCC(=O)N1CCN(c2ccc(CN(C)CC(O)(Cn3cncn3)c3ccc(F)cc3F)cc2)CC1 (stereo not given)
0.2 µg/mL (≈ 0.353 µM) | 0.006 µg/mL (≈ 0.0106 µM) | 0.1 µg/mL (≈ 0.176 µM) | 0.006 µg/mL (≈ 0.0106 µM) | 0.013 µg/mL (≈ 0.0229 µM) | 0.025 µg/mL (≈ 0.0441 µM) | 0.1 µg/mL (≈ 0.176 µM) | CN(Cc1ccc(N2CCN(Cc3ccccc3Cl)CC2)cc1)CC(O)(Cn1cncn1)c1ccc(F)cc1F (stereo not given)
0.2 µg/mL (≈ 0.31 µM) | 0.006 µg/mL (≈ 0.00929 µM) | 0.2 µg/mL (≈ 0.31 µM) | 0.013 µg/mL (≈ 0.0201 µM) | 0.006 µg/mL (≈ 0.00929 µM) | 0.013 µg/mL (≈ 0.0201 µM) | 0.1 µg/mL (≈ 0.155 µM) | CN(Cc1ccc(N2CCN(Cc3cc(Cl)ccc3Br)CC2)cc1)CC(O)(Cn1cncn1)c1ccc(F)cc1F (stereo not given)
3.2 µg/mL (≈ 5.69 µM) | 0.1 µg/mL (≈ 0.178 µM) | 0.8 µg/mL (≈ 1.42 µM) | 0.1 µg/mL (≈ 0.178 µM) | 0.2 µg/mL (≈ 0.355 µM) | 0.5 µg/mL (≈ 0.889 µM) | 0.8 µg/mL (≈ 1.42 µM) | COc1ccc(CN2CCN(c3ccc(CN(C)CC(O)(Cn4cncn4)c4ccc(F)cc4F)cc3)CC2)cc1 (stereo not given)
0.2 µg/mL (≈ 0.304 µM) | 0.025 µg/mL (≈ 0.038 µM) | 0.1 µg/mL (≈ 0.152 µM) | 0.013 µg/mL (≈ 0.0197 µM) | 0.013 µg/mL (≈ 0.0197 µM) | 0.013 µg/mL (≈ 0.0197 µM) | – | CN(Cc1ccc(N2CCN(Cc3ccccc3I)CC2)cc1)CC(O)(Cn1cncn1)c1ccc(F)cc1F (stereo not given)

Source: ChEMBL document CHEMBL6092162, “Identification of novel and potent triazoles targeting CYP51 for antifungal: Design, synthesis, and biological study” (Eur J Med Chem, 2024)
